Publication PMC8448162, “Single- and Multiple-Ascending-Dose Study of the Safety, Tolerability, and Pharmacokinetics of the Polymyxin Derivative SPR206” (Antimicrobial Agents and Chemotherapy, 2021)
Positions of bridges follow the written chain, without caps; N, C: chain ends. Non-standard residues stand in square brackets, D forms with d. Residues, ends and D or L forms follow the SMILES beside them. *: point of attachment. X1 = NC[C@@H](CC(=O)*)c1cccc(Cl)c1; Dab = NCC[C@H](N)C(=O)O; Dap = NC[C@H](N)C(=O)O

Assays:
kidney cell = settings: cited from earlier work
kidney = settings: mouse, in vivo; cited from earlier work
[1] = human; cited from earlier work
healthy subjects = test: Safety and tolerability (adverse events, laboratory tests, ECG), first-in-human SAD/MAD study, 1-h i.v. infusion; type: in vivo
Method: This was a single-center, phase 1, randomized, double-blind, placebo-controlled, first-in-human study to assess the safety, tolerability, and PK of SPR206 following SAD and MAD administrations (Fig. 7). In the SAD phase, subjects received a single i.v. dose of SPR206, and in the MAD phase, subjects received i.v. doses of SPR206 every 8 h (q8h) over a period of 7 to 14 days. SPR206 was administered as a 1 h i.v. infusion.
In the SAD phase, healthy subjects were screened within 28 days prior to dosing and admitted to the clinical facility on day −1. A single i.v. dose of SPR206 or placebo was administered on day 1. Following completion of all safety assessments and sampling for PK analyses, subjects were discharged on day 2. A follow-up visit occurred 5 to 7 days after day 1 dosing.
In the SAD phase, subjects were randomized to one of seven cohorts consisting of 10-, 25-, 50-, 100-, 200-, 300-, and 400-mg doses of SPR206. Within each cohort, two subjects received placebo and six subjects received SPR206. Two subjects (sentinels) were dosed with SPR206 or placebo 48 h prior to the remaining subjects. The remaining six subjects were only dosed after no safety concerns were identified in the sentinel subjects. After each dose cohort had completed study drug dosing and safety evaluations, a safety monitoring group (SMG) reviewed blinded cumulative safety data (including day 5 to 7 follow-up data) to confirm the safety and tolerability of SPR206. Blood and urine samples were collected for assessment of PK parameters.
In the MAD phase, all subjects were admitted to the clinical facility on day −1. Dosing commenced on the morning of day 1. Three doses were administered daily at approximately 8 (±0.5)-hour intervals for a total of 7 consecutive days (cohorts 9 through 12) and 14 consecutive days (cohort 13). The last dose was administered on the morning of day 14. Subjects were discharged on day 16 following completion of all PK sample collection and safety assessments, and a follow-up visit occurred 12 to 14 days after the last dose.
The MAD phase began after completion of the SAD phase, and the appropriate starting dose level was established. Two subjects received placebo, and six subjects received SPR206 doses of 25, 50, 100, and 150 mg q8h for 7 days and 100 mg q8h for 14 days. In each cohort of the MAD, two subjects (sentinels) began dosing with SPR206 or placebo 72 h prior to the remaining subjects in this cohort. The remaining six subjects were only dosed after no safety concerns were identified by the principal investigator. After each MAD dose cohort had completed administration of study drug and all evaluations, the safety monitoring group reviewed blinded cumulative safety data (including the day 19 to 21 follow-up data) to confirm the safety and tolerability of the study drug. Blood and urine samples were collected to measure SPR206 drug levels to determine SPR206 PK parameters.
Safety assessments included clinical laboratory testing (hematology, coagulation, serum chemistry, urinalysis), vital signs (blood pressure, heart rate, body temperature, respiratory rate), physical examination, and triplicate 12-lead ECG to assess corrected QT interval by Fredericia (QTcF). In the SAD phase, continuous cardiac monitoring was performed from 1 h predose through 24 h postdose. Adverse events were recorded at each study visit.
Serum creatinine concentrations were measured from the clinical laboratory tests performed on days −1 and 15. Urine creatinine concentration were measured using 24 h collections prior to the first dose on day 1 and over 24 to 48 h following the start of infusion of the last dose (day 14).

[2] = rat, in vivo; cited from earlier work
[3] = in vivo; cited from earlier work
[4] = MAD, 25 mg q8h × 7 days (n = 6)
[5] = MAD, 50 mg q8h × 7 days (n = 6)
[6] = MAD, 100 mg q8h × 7 days (n = 6)
[7] = MAD, 100 mg q8h × 14 days (n = 6)
[8] = MAD, 150 mg q8h × 7 days (n = 6)
[9] = SAD, single i.v. dose 10 mg (n = 6)
[10] = SAD, single i.v. dose 50 mg (n = 6)
[11] = SAD, single i.v. dose 100 mg (n = 6)
[12] = SAD, single i.v. dose 200 mg (n = 6)
[13] = SAD, single i.v. dose 400 mg (n = 6)

CC(C)C[C@@H]1NC(=O)[C@@H](Cc2ccccc2)NC(=O)[C@H](CCN)NC(=O)[C@@H](NC(=O)[C@H](CN)NC(=O)[C@@H](NC(=O)C[C@H](CN)c2cccc(Cl)c2)[C@@H](C)O)CCNC(=O)[C@H]([C@@H](C)O)NC(=O)[C@H](CCN)NC(=O)[C@H](CCN)NC1=O [SPR206] (X1-T[Dap][Dab][Dab][dF]L[Dab][Dab]T; lactam 3-C (inferred))
kidney cell cytotoxicity compared with PMB (kidney cell): lower kidney cell cytotoxicity
histopathological changes in the kidney (kidney): no histopathological changes in the kidney
protein binding [1]: < 21%
At least one treatment-related adverse event (healthy subjects; [4]): 1 (16.7) No. (%) of subjects
TEAE Infusion site phlebitis (healthy subjects; [4]): 0 No. (%) of subjects
TEAE Headache (healthy subjects; [5]): 2 (33.3) No. (%) of subjects
TEAE Infusion site phlebitis (healthy subjects; [5]): 1 (16.7) No. (%) of subjects
TEAE Paresthesia oral (healthy subjects; [5]): 2 (33.3) No. (%) of subjects
TEAE Headache (healthy subjects; [6]): 2 (33.3) No. (%) of subjects
TEAE Infusion site phlebitis (healthy subjects; [6]): 1 (16.7) No. (%) of subjects
TEAE Paresthesia oral (healthy subjects; [6]): 1 (16.7) No. (%) of subjects
TEAE Dizziness (healthy subjects; [7]): 2 (33.3) No. (%) of subjects
TEAE Headache (healthy subjects; [7]): 1 (16.7) No. (%) of subjects
TEAE Infusion site phlebitis (healthy subjects; [7]): 1 (16.7) No. (%) of subjects
TEAE Paresthesia oral (healthy subjects; [7]): 1 (16.7) No. (%) of subjects
TEAE Constipation (healthy subjects; [8]): 1 (16.7) No. (%) of subjects
TEAE Dry mouth (healthy subjects; [8]): 2 (33.3) No. (%) of subjects
TEAE Infusion site phlebitis (healthy subjects; [8]): 2 (33.3) No. (%) of subjects
TEAE Paresthesia oral (healthy subjects; [8]): 2 (33.3) No. (%) of subjects
TEAE leading to drug withdrawal (healthy subjects; [8]): 2 (33.3) No. (%) of subjects
At least one treatment-emergent adverse event (healthy subjects; [9]): 1 (16.7) No. (%) of subjects
At least one treatment-related adverse event (healthy subjects; [9]): 1 (16.7) No. (%) of subjects
At least one treatment-emergent adverse event (healthy subjects; [10]): 1 (16.7) No. (%) of subjects
At least one treatment-related adverse event (healthy subjects; [10]): 1 (16.7) No. (%) of subjects
At least one treatment-emergent adverse event (healthy subjects; [11]): 1 (16.7) No. (%) of subjects
At least one treatment-related adverse event (healthy subjects; [11]): 1 (16.7) No. (%) of subjects
At least one treatment-emergent adverse event (healthy subjects; [12]): 2 (33.3) No. (%) of subjects
At least one treatment-related adverse event (healthy subjects; [12]): 2 (33.3) No. (%) of subjects
TEAE Diarrhea (healthy subjects; [13]): 2 (33.3) No. (%) of subjects
TEAE Fatigue (healthy subjects; [13]): 2 (33.3) No. (%) of subjects
TEAE Paresthesia (healthy subjects; [13]): 1 (16.7) No. (%) of subjects
effect on renal function (serum creatinine and creatinine clearance) (healthy subjects; human, in vivo): no clinically significant effect on renal function
AEs of mild severity (healthy subjects; in vivo): 84 % of all AEs
changes in vital signs, physical examination, or ECG parameters (healthy subjects; in vivo): no clinically significant changes
effect on liver function (healthy subjects; in vivo): no clinically significant effect on liver function
effect on the ECG (healthy subjects; in vivo): no effect on the ECG
serious AEs (healthy subjects; in vivo): No serious AEs
severe AEs (healthy subjects; in vivo): no severe AEs
subjects with paresthesia events considered nervous system disorders (healthy subjects; in vivo): 7.4%
exposure in the kidney compared with PMB [2]: lower exposure in the kidney of rats
accumulation after repeat dosing [3]: no apparent accumulation
